Assay results as given in ChEMBL document CHEMBL1156467, “Inhibition of GLI-mediated transcription and tumor cell growth by small-molecule antagonists” (Proc Natl Acad Sci U S A, 2007).
Activity calls are given as the source filed them. The calls are words filed in the database; no cut-off is given here.

Columns and labels:
[1] = test system: NIH3T3; experiment: Effect on Hedgehog signaling in mouse NIH3T3 cells assessed as activation of TNF signaling; format: functional, cell-based
[2] = test system: HepG2; experiment: Cytotoxicity against human HepG2 cells at 10 uM after 48 hrs assessed as reduction in cell viability by MTS assay; format: functional, cell-based
[3] = Reduction in expression of Hedgehog target gene Gli1 in Sufu deficient mouse embryonic fibroblast; format: functional
[4] = test system: CWR22R; experiment: Induction of apoptosis in human 22Rv1 cells assessed as caspase3/7 cleavage by luminometric assay; format: functional, cell-based
[5] = Reduction in PTCH expression in human 22Rv cells at 5 uM; format: functional, cell-based
[6] = test system: HepG2; experiment: Induction of apoptosis in human HepG2 cells assessed as caspase3/7 cleavage by luminometric assay; format: functional, cell-based
[7] = test system: NIH3T3; experiment: Effect on Hedgehog signaling in mouse NIH3T3 cells assessed as transactivation of Ras-Raf-Mek-Mapk cascade; format: functional, cell-based
[8] = Reduction of expression of PTCH mRNA in human 22Rv cells; format: functional, cell-based
[9] = test system: HEK293; experiment: Inhibition of nuclear accumulation of GLI mutant in HEK293 cells; format: functional, cell-based; conditions: Homo sapiens
[10] = test system: PANC-1; experiment: Reduction in GLI1 expression in human PANC1 cells at 5 uM; format: functional, cell-based
[11] = target: T1, Zinc finger protein GLI1 (Mus musculus) (UniProt P47806); experiment: Inhibition of GLI1 induced hedgehog signaling in mouse NIH3T3 cells; format: cell-based
T1 sequence (whole entry): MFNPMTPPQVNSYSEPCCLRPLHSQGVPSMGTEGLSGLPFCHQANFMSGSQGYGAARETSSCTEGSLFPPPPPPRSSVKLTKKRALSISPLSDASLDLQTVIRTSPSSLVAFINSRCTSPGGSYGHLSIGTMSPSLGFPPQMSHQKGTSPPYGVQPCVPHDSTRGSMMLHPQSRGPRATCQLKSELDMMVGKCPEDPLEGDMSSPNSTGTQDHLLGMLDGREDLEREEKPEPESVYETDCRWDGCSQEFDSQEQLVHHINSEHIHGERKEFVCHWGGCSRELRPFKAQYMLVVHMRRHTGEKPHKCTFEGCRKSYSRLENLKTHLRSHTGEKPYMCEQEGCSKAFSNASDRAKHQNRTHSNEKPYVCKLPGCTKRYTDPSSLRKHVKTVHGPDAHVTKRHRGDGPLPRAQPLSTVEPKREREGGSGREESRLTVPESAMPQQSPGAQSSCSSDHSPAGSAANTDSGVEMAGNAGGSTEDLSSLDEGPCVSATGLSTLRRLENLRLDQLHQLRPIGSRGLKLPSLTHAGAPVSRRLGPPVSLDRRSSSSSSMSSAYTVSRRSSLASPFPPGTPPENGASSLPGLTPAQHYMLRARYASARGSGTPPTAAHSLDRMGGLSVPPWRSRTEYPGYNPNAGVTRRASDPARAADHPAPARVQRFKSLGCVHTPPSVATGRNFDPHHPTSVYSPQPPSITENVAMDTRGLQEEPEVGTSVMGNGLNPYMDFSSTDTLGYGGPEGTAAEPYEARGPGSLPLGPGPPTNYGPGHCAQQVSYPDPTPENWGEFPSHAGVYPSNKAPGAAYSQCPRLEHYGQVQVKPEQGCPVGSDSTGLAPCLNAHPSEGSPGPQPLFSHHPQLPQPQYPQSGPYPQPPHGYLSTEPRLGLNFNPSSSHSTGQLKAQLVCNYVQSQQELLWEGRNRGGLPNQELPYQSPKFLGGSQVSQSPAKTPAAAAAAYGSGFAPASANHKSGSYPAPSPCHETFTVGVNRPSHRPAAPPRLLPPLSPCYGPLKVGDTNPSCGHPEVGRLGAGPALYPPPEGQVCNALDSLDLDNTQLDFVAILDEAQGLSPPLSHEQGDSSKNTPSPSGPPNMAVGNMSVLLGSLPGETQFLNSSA

[12] = test system: NIH3T3; experiment: Induction of apoptosis in mouse NIH3T3 cells assessed as caspase3/7 cleavage by luminometric assay; format: functional, cell-based
[13] = organism: Mus musculus; experiment: Antiproliferative activity against mouse embryonic fibroblast at 10 uM assessed as microarray method; format: functional
[14] = target: Zinc finger protein GLI2 (Homo sapiens) (UniProt P10070); experiment: Reduction of GLI2 mediated transcription in HEK293 cells by luciferase reporter assay; format: cell-based
Chain of Zinc finger protein GLI2 (Homo sapiens) (P10070 whole entry): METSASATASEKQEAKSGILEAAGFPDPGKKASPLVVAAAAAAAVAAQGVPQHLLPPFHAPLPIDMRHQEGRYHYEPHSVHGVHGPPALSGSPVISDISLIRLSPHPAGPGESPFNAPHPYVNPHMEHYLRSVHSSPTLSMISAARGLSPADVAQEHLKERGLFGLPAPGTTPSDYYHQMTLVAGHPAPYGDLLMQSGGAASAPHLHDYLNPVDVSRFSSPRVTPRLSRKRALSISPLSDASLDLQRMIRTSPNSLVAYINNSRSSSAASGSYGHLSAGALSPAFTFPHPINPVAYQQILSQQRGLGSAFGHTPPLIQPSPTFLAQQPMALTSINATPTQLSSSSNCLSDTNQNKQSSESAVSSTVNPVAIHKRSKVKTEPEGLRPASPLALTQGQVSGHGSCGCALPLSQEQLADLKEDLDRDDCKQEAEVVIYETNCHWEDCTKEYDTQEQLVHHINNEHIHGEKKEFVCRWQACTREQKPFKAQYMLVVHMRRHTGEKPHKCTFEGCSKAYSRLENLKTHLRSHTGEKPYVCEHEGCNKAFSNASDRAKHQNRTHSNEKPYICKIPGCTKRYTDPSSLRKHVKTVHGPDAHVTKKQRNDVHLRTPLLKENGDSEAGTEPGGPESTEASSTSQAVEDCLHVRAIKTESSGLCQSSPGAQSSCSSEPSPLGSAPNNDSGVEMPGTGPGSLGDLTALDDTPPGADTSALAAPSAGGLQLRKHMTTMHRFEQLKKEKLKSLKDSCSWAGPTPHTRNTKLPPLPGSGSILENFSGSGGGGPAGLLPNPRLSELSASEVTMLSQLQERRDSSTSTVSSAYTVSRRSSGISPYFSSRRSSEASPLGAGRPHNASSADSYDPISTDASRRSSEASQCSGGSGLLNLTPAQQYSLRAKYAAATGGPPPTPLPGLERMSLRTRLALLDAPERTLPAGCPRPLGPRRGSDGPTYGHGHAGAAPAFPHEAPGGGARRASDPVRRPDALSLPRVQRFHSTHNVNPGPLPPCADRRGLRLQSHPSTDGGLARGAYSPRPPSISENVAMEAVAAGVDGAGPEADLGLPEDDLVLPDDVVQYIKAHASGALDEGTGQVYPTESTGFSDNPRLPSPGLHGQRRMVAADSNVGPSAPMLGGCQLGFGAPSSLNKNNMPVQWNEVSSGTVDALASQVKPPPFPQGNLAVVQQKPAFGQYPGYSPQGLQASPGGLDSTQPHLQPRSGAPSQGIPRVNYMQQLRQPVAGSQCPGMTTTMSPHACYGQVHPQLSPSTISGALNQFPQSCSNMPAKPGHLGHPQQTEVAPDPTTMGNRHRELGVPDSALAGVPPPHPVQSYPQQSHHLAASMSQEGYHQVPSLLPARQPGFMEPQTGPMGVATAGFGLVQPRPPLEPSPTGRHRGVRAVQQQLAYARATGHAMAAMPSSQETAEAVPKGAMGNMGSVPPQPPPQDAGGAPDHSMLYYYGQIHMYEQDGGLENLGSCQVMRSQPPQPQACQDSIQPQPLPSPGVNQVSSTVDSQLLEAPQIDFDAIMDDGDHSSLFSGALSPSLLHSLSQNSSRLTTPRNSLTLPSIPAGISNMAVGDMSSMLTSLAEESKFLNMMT

[15] = target: T2, Zinc finger protein GLI1 (Homo sapiens) (UniProt P08151); experiment: Inhibition of GLI via PKA activation in HEK293 cells; format: cell-based
T2 sequence (whole entry): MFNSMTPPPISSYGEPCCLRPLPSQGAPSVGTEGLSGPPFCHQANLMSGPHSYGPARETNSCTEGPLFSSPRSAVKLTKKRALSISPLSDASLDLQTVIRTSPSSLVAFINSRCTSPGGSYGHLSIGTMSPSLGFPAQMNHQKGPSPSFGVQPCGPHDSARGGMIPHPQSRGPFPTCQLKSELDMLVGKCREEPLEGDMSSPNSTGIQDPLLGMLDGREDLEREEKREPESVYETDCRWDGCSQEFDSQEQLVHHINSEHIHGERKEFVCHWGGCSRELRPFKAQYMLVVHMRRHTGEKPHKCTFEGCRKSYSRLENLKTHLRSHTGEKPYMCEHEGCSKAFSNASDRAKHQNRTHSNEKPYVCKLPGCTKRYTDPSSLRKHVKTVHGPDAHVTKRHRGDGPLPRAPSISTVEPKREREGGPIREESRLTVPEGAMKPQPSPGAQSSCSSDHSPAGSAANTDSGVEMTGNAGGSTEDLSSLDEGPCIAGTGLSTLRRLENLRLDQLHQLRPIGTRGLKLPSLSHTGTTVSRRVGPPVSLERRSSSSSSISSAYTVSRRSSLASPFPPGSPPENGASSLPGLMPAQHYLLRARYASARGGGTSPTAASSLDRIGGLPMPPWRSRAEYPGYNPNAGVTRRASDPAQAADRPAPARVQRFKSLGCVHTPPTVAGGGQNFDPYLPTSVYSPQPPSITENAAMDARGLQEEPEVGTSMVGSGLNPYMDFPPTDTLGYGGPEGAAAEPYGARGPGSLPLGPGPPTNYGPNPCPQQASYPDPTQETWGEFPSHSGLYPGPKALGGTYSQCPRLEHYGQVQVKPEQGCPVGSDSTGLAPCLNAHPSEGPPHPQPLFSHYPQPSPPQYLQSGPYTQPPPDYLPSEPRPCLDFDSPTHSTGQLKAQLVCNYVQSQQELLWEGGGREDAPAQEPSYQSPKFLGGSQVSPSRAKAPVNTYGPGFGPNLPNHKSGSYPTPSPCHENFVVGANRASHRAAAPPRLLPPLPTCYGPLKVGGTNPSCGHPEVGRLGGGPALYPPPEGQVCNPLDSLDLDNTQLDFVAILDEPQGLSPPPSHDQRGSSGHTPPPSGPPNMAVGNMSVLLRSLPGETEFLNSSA

[16] = test system: Jurkat; experiment: Inhibition of Gli1 dependent growth of human Jurkat cells at 5 uM; format: functional; parameters: scale not given: the % may be the effect or the level left
[17] = test system: NIH3T3; experiment: Effect on Hedgehog signaling in mouse NIH3T3 cells assessed as activation of NF kappaB; format: functional, cell-based
[18] = Inhibition of Gli1 dependent growth of human 22Rv cells at 5 uM; format: functional; parameters: scale not given: the % may be the effect or the level left
[19] = test system: PANC-1; experiment: Inhibition of Gli1 dependent growth of human PANC1 cells at 5 uM; format: functional; parameters: scale not given: the % may be the effect or the level left
[20] = organism: Mus musculus; experiment: Cytotoxicity against wild type mouse embryonic fibroblast at 10 uM after 48 hrs assessed as reduction in cell viability by MTS assay; format: functional
[21] = test system: HEK293; experiment: Induction of apoptosis in HEK293 cells assessed as caspase3/7 cleavage by luminometric assay; format: functional, cell-based; conditions: Homo sapiens
[22] = test system: NIH3T3; experiment: Effect on Hedgehog signaling in mouse NIH3T3 cells assessed as transactivation of glucocorticoid receptor; format: functional, cell-based
[23] = test system: Jurkat; experiment: Induction of apoptosis in human Jurkat cells assessed as caspase3/7 cleavage by luminometric assay; format: functional, cell-based
[24] = test system: HepG2; experiment: Inhibition of Gli1 dependent growth of human HepG2 cells at 5 uM; format: functional; parameters: scale not given: the % may be the effect or the level left
[25] = test system: NIH3T3; experiment: Cytotoxicity against mouse NIH3T3 cells at 10 uM after 48 hrs assessed as reduction in cell viability by MTS assay; format: functional, cell-based
[26] = target: T2, Zinc finger protein GLI1 (Homo sapiens); experiment: Alteration in DNA binding to GLI1 in HEK293 cells; format: cell-based
[27] = test system: PANC-1; experiment: Reduction in PTCH expression in human PANC1 cells at 5 uM; format: functional, cell-based
[28] = test system: NIH3T3; experiment: Inhibition of Hedgehog/Gli1 mediated transformation in mouse NIH3T3 cells at 10 uM; format: functional, cell-based
[29] = target: T2, Zinc finger protein GLI1 (Homo sapiens); experiment: Reduction of GLI1 mediated transcription in HEK293 cells by luciferase reporter assay; format: cell-based
[30] = Inhibition of Hedgehog signaling in […] Shh-L2 cells; format: functional, cell-based
[31] = test system: MEF; experiment: Reduction in expression of Hedgehog target gene Hip1 in Sufu deficient mouse MEF cells; format: functional, cell-based
[32] = Reduction in GlI1 expression in human 22Rv cells at 5 uM; format: functional, cell-based
[33] = test system: DU146; experiment: Induction of apoptosis in human […] cells assessed as caspase3/7 cleavage by luminometric assay; format: functional, cell-based
[34] = organism: Mus musculus; experiment: Reduction of Gil1 mRNA levels at 10 uM in Ptch deficient mouse embryonic fibroblast; format: functional
[35] = Antiproliferative activity against Ptch deficient mouse embryonic fibroblast at 10 uM by BrdU incorporation; format: functional
[36] = test system: HEK293; experiment: Inhibition of nuclear accumulation of wild type GLI in HEK293 cells; format: functional, cell-based; conditions: Homo sapiens
[37] = test system: Homo sapiens; experiment: Antitumor activity in GLI1 positive human 22Rv cells xenografted mouse model at 50 mg/kg, sc after 18 days; format: functional, organism-based; parameters: dose 50 mg/kg
[38] = organism: Mus musculus; experiment: Reduction of Ptch1-lacZ level in mouse embryonic fibroblast by luminometric assay; format: functional
[39] = test system: HEK293; experiment: Inhibition of beta galactosidase in HEK293 cells; format: cell-based; conditions: Homo sapiens

## CN(C)c1ccccc1CN1CCCN(Cc2ccccc2N(C)C)C1c1ccncc1
[1]
  Activity: inactive
[2]
  Activity: inactive
[3]
  Activity: Active
[4]
  Activity: inactive
[5]
  Activity: Active
[6]
  Activity: inactive
[7]
  Activity: inactive
[8]
  Activity: Active
[9]
  Activity: Active
[10]
  Activity: Active
[11]
  Activity: Active
[12]
  Activity: inactive
[13]
  Activity: Active
[14]
  Activity: Active
[15]
  Activity: inactive
[16]
  Activity: 0%
[17]
  Activity: inactive
[18]
  Activity: 40%
[19]
  Activity: 40%
[20]
  Activity: inactive
[21]
  Activity: inactive
[22]
  Activity: inactive
[23]
  Activity: inactive
[24]
  Activity: 0%
[25]
  Activity: inactive
[26]
  Activity: inactive
[27]
  Activity: Active
[28]
  Activity: Active
[29]
  Activity: Active
[30]
  IC50: 5 µM
[31]
  Activity: Active
[32]
  Activity: Active
[33]
  Activity: inactive
[34]
  Activity: Active
[35]
  Activity: 40%
[36]
  Activity: Active
[37]
  Activity: Active
[38]
  Activity: Active
[39]
  Activity: Active

## c1cc(-c2sc(-c3ccncc3)c(-c3ccncc3)c2-c2ccncc2)ccn1
[1]
  Activity: inactive
[3]
  Activity: Active
[4]
  Activity: inactive
[5]
  Activity: Active
[6]
  Activity: inactive
[7]
  Activity: inactive
[8]
  Activity: Active
[9]
  Activity: Active
[10]
  Activity: Active
[11]
  Activity: Active
[12]
  Activity: inactive
[14]
  Activity: Active
[15]
  Activity: inactive
[16]
  Activity: 0%
[17]
  Activity: inactive
[18]
  Activity: 40%
[19]
  Activity: 40%
[21]
  Activity: inactive
[22]
  Activity: inactive
[23]
  Activity: inactive
[24]
  Activity: 0%
[26]
  Activity: inactive
[27]
  Activity: Active
[28]
  Activity: Active
[29]
  Activity: Active
[30]
  IC50: 5 µM
[31]
  Activity: Active
[32]
  Activity: Active
[33]
  Activity: inactive
[34]
  Activity: Active
[35]
  Activity: 40%
[36]
  Activity: Active
[37]
  Activity: Active
[38]
  Activity: Active
[39]
  Activity: Active

## CC1=C2C[C@H]3[C@@H](CC=C4C[C@@H](O)CC[C@@]43C)[C@@H]2CC[C@]12O[C@@H]1C[C@H](C)CN[C@H]1[C@H]2C [CYCLOPAMINE]
[3]
  Activity: inactive
[8]
  Activity: Active
[31]
  Activity: inactive
[34]
  Activity: Active
[35]
  Activity: 40%
[38]
  Activity: Active
[39]
  Activity: Active
